According to the CheMixHub viscosity set:

Test: xn = mol fraction of the nth substance listed

CC(C)CO + C1COCCO1
298.15 K, 101 kPa
Conditions | viscosity [mPa·s]
x2 = 0.0416 | 2.787
x2 = 0.125 | 2.14
x2 = 0.2354 | 1.668
x2 = 0.3104 | 1.489
x2 = 0.4165 | 1.296
x2 = 0.4739 | 1.231
x2 = 0.5066 | 1.206
x2 = 0.5756 | 1.153
x2 = 0.5788 | 1.144
x2 = 0.7141 | 1.107
x2 = 0.7411 | 1.098
x2 = 0.7859 | 1.107
x2 = 0.832 | 1.099
x2 = 0.8845 | 1.109
x2 = 0.9419 | 1.131

CCCCCOC(C)=O + C1COCCO1
303.15 K, 101.3 kPa
Conditions | viscosity [mPa·s]
x2 = 0.0981 | 0.7721
x2 = 0.2981 | 0.8134
x2 = 0.505 | 0.8719
x2 = 0.7018 | 0.9452
x2 = 0.9003 | 1.037

Cc1ccccc1O + C1COCCO1
308.15 K, 101 kPa
Conditions | viscosity [mPa·s]
x2 = 0.1 | 4.947
x2 = 0.2 | 4.855
x2 = 0.3 | 4.267
x2 = 0.4 | 3.498
x2 = 0.5 | 2.795
x2 = 0.6 | 2.208
x2 = 0.7 | 1.764
x2 = 0.8 | 1.382
x2 = 0.9 | 1.163

CCCCCOC(C)=O + C=Cc1ccccc1
Conditions | viscosity [mPa·s]
298.15 K, 101 kPa, x2 = 0.103 | 0.802

CCn1cc[n+](C)c1.O=S(=O)([O-])C(F)(F)F + CC1COC(=O)O1
101 kPa
Conditions | viscosity [mPa·s]
298.15 K, x1 = 0.6987 | 21.65
303.15 K, x1 = 0.0999 | 3.915
303.15 K, x1 = 0.1999 | 5.315
303.15 K, x1 = 0.6987 | 18.45
308.15 K, x1 = 0.1999 | 4.575
313.15 K, x1 = 0.3998 | 6.675
318.15 K, x1 = 0.8998 | 17.65
323.15 K, x1 = 0.0999 | 2.425
323.15 K, x1 = 0.3998 | 5.115

Cc1ccccc1O + CC12CCC(CC1)C(C)(C)O2
viscosity [mPa·s], 101 kPa
Conditions | x2 = 0.0644 | x2 = 0.1341 | x2 = 0.2098 | x2 = 0.2923 | x2 = 0.3825 | x2 = 0.4817 | x2 = 0.5911 | x2 = 0.7125 | x2 = 0.8479
303.15 K | 6.716 | 7.057 | 7.387 | 7.431 | 7.201 | 6.63 | 5.917 | 4.949 | 3.732
308.15 K | 5.48 | 5.76 | 5.997 | 6.081 | 5.929 | 5.628 | 5.058 | 4.201 | 3.201
313.15 K | 4.569 | 4.81 | 4.944 | 5.041 | 5.032 | 4.696 | 4.12 | 3.359 | 2.48

C=CC(=O)OC + CC#N
viscosity [mPa·s], 100 kPa
Conditions | 293.15 K | 298.15 K | 303.15 K | 308.15 K | 313.15 K | 318.15 K
x2 = 0.0591 | 0.4934 | 0.4511 | 0.4118 | 0.3786 | 0.3488 | 0.3221
x2 = 0.1171 | 0.4832 | 0.4422 | 0.4042 | 0.3721 | 0.3431 | 0.3171
x2 = 0.17 | 0.474 | 0.4343 | 0.3976 | 0.3664 | 0.3383 | 0.313
x2 = 0.2356 | 0.4627 | 0.4247 | 0.3896 | 0.3597 | 0.3327 | 0.3083
x2 = 0.2977 | 0.4524 | 0.416 | 0.3824 | 0.3537 | 0.3278 | 0.3043
x2 = 0.3615 | 0.4422 | 0.4074 | 0.3754 | 0.348 | 0.3232 | 0.3007
x2 = 0.4343 | 0.431 | 0.398 | 0.3679 | 0.3419 | 0.3185 | 0.2971
x2 = 0.5014 | 0.4212 | 0.3899 | 0.3614 | 0.3368 | 0.3146 | 0.2943
x2 = 0.5738 | 0.4112 | 0.3818 | 0.3551 | 0.332 | 0.311 | 0.2918
x2 = 0.6537 | 0.4009 | 0.3736 | 0.349 | 0.3274 | 0.3078 | 0.2897
x2 = 0.7623 | 0.3881 | 0.3635 | 0.3417 | 0.3223 | 0.3046 | 0.2883
x2 = 0.8155 | 0.3823 | 0.3592 | 0.3387 | 0.3204 | 0.3037 | 0.2882
x2 = 0.9074 | 0.3729 | 0.3523 | 0.3342 | 0.3179 | 0.303 | 0.2889

C=CC(=O)OCCCC + CC#N
viscosity [mPa·s], 100 kPa
Conditions | 293.15 K | 298.15 K | 303.15 K | 308.15 K | 313.15 K | 318.15 K
x2 = 0.061 | 0.8625 | 0.8036 | 0.7492 | 0.6997 | 0.6541 | 0.611
x2 = 0.1168 | 0.8292 | 0.7725 | 0.7202 | 0.6725 | 0.6285 | 0.587
x2 = 0.1832 | 0.7901 | 0.7361 | 0.6864 | 0.641 | 0.5992 | 0.5596
x2 = 0.2571 | 0.7473 | 0.6964 | 0.6497 | 0.607 | 0.5677 | 0.5304
x2 = 0.3094 | 0.7174 | 0.6687 | 0.6241 | 0.5834 | 0.5459 | 0.5103
x2 = 0.3825 | 0.6761 | 0.6306 | 0.589 | 0.551 | 0.516 | 0.4829
x2 = 0.4563 | 0.6351 | 0.5928 | 0.5542 | 0.519 | 0.4866 | 0.4558
x2 = 0.5282 | 0.5958 | 0.5566 | 0.521 | 0.4885 | 0.4585 | 0.4301
x2 = 0.5779 | 0.569 | 0.532 | 0.4985 | 0.4678 | 0.4395 | 0.4126
x2 = 0.6483 | 0.5319 | 0.4979 | 0.4672 | 0.4391 | 0.4132 | 0.3886
x2 = 0.7299 | 0.49 | 0.4596 | 0.4322 | 0.4071 | 0.384 | 0.362
x2 = 0.8143 | 0.4484 | 0.4216 | 0.3977 | 0.3758 | 0.3556 | 0.3364
x2 = 0.9182 | 0.3998 | 0.3778 | 0.3584 | 0.3405 | 0.3241 | 0.3086
